Counter-ions that a name gives are not always drawn.

The text below walks through data of US7132547B2, “Preventives/remedies for urinary disturbance” (priority 2001, dated 2006).

In the case of `Cl.O=C(CCCCNCCc1ccccc1)c1cc2c3c(c1)CCN3C(=O)CC2`, the melting point – broadly, the temperature of the solid-liquid transition – was in the range of 166 to 168 °C.
Regarding `COc1ccccc1CCN(C)CCCCC(=O)c1ccc2[nH]c(=O)[nH]c2c1.Cl`, the melting point was 169 to 180 °C (dec.).
With `COc1ccc(C(=O)CCCCNCCc2ccccc2)cc1S(N)(=O)=O.Cl` the figure was 160 to 168 °C.
With `COc1ccccc1CCNCCCCC(=O)c1ccc(OC)c(S(=O)(=O)NC(C)C)c1.Cl` the figure was 164 to 166 °C.
Consider `CC(C)NS(=O)(=O)c1cc(C(=O)CCCCNCCc2ccccc2Cl)cc2c1OCC2.Cl`, for which the melting point is 149 to 151 °C.
The same measure for `Cl.NS(=O)(=O)c1cc(C(=O)CCCCNCCc2ccccc2)cc2c1OCCO2`: 152 to 154 °C.
Regarding `Cl.NS(=O)(=O)c1cc(C(=O)CCCCNCCc2ccccc2Cl)cc2c1OCCO2`, the melting point was in the range of 178 to 180 °C.
The same measure for `COc1ccc(C(=O)CCCCCNCCc2ccccc2Cl)cc1NS(C)(=O)=O.Cl`: 112 to 115 °C; for `Cl.O=C(CCCCNCCc1ccccc1Cl)c1c[nH]c2ccccc12`: 149 to 151 °C; for `Cl.O=C(CCCCCNCCc1ccccc1Cl)c1c[nH]c2ccccc12`: 151 to 153 °C.
The molecule `Cl.O=C(CCCCNCCc1ccccc1Cl)c1cccs1` showed a melting point of 146 to 147 °C.
With `Cl.O=C(CCCCCNCCc1ccccc1Cl)c1cccs1` the figure was 149 to 151 °C.
With `Cl.O=C1CCc2cc(C(=O)[C@H]3CC[C@H](CNCCc4ccccc4Cl)CC3)cc3c2N1CC3` the figure was 271 °C; with `COc1cccc(CCN(C)CCCCCC(=O)c2cc3c4c(c2)CCN4C(=O)CC3)c1.Cl`, 116 to 118 °C; with `COc1ccccc1CCN(C)CCCCC(=O)c1ccc2c(c1)CNC(=O)N2.Cl`, 170 to 171 °C (dec.).
The same measure for `CN(CCCCC(=O)c1ccc2c(c1)CNC(=O)N2)CCc1ccccc1Cl.Cl`: 192 to 195 °C (dec.); for `Cl.O=C(CCCCCNCc1ccccc1)c1cc2c3c(c1)CCN3C(=O)CC2`: 181 to 183 °C.
Consider `COc1ccc(CCN2CCC(CCC(=O)c3cc4c5c(c3)CCN5C(=O)CC4)CC2)cc1.Cl`, for which the melting point was 141 to 143 °C.
The same measure for `Cl.O=C(CCC1CCN(CCc2ccccc2Cl)CC1)c1cc2c3c(c1)CCN3C(=O)CC2`: 207 to 210 °C; for `Cl.O=C(CCC1CCN(CCc2ccc([N+](=O)[O-])cc2)CC1)c1cc2c3c(c1)CCN3C(=O)CC2`: 217 to 219 °C; for `Cl.O=C(CCC1CCN(CCc2c(Cl)cccc2Cl)CC1)c1cc2c3c(c1)CCN3C(=O)CC2`: 226 to 229 °C.
The same measure for `Cl.O=C(CCC1CCN(CC(=O)c2ccccc2)CC1)c1cc2c3c(c1)CCN3C(=O)CC2`: 114 to 116 °C; for `CCOc1ccccc1OCCN1CCC(CCC(=O)c2ccc(OC)c(NC(C)=O)c2)CC1.Cl`: 127 to 129 °C; for `Cl.O=C(CCCN1CCCc2ccccc2C1)c1cc2c3c(c1)CCN3C(=O)CC2`: 230 to 232 °C.
The same measure for `COc1cc2c(cc1OC)CN(CCCCCC(=O)c1cc3c4c(c1)CCN4C(=O)CC3)CC2.Cl`: 216 to 218 °C; for `COc1ccccc1CCNCCCCC(=O)c1cc2c3c(c1)CC(=O)N3CCC2.Cl`: 169 to 170 °C; for `Cl.O=C(CCC1CCN(CCc2ccccc2F)CC1)c1cc2c3c(c1)CCN3C(=O)CC2`: 210 to 212 °C.
On to `Cl.O=C(CCC1CCN(CCc2cccc(Cl)c2)CC1)c1cc2c3c(c1)CCN3C(=O)CC2`, for which the melting point fell in the range of 223 to 225 °C.
The same measure for `CCOc1ccccc1OCCN1CCC(CCC(=O)c2ccc(OC)c(N)c2)CC1` (as salt: hydrochloride): 123 to 125 °C; for `O=C(CCC1CCN(CCc2ccccc2)CC1)c1cc2c3c(c1)CCN3C(=O)CC2` (as salt: hydrochloride): 219 to 221 °C; for `CC(Cc1ccccc1)N1CCC(CCC(=O)c2cc3c4c(c2)CCN4C(=O)CC3)CC1.Cl` (racemic): 211 to 213 °C.
In turn, `Cl.O=C(CCC1CCN(CC(O)c2ccccc2)CC1)c1cc2c3c(c1)CCN3C(=O)CC2` (racemic) had a melting point of 235 to 237 °C.
The molecule `Cl.O=C(CCC1CCN(C2CCc3ccccc32)CC1)c1cc2c3c(c1)CCN3C(=O)CC2` (racemic) came in with a melting point of 111 to 113 °C.
The same measure for `Cl.O=C(CCC1CCN(C2CCc3ccccc3C2)CC1)c1cc2c3c(c1)CCN3C(=O)CC2` (racemic): 223 to 225 °C; for `Cl.O=C(CCCCNC1CCc2ccccc21)c1cc2c3c(c1)CCN3C(=O)CC2` (racemic): 98 to 100 °C.
The molecule `Cl.O=C1CCc2cc(C(=O)[C@H]3CC[C@H](CNCCc4ccccc4)CC3)cc3c2N1CC3` (stereo in doubt) displayed a melting point of 252 to 254 °C.
